Patent US10150984B2, “Tyrosine kinase biosensors and methods of use” (Purdue Research Foundation, priority 2012, dated 2018)
Like-named read-outs stand apart in the source and are kept apart here. *1 amine or outer side, *2 acyl side, *3 side chain or, on linkers, in order; H or OH if unused. Where no end group is shown, it is not given here. [ ]: non-standard residue; d: D form. The star is where a group is joined. ξ: configuration not given here. ξβ3hPhg(2-NO2) = O=C(CC(N[*:1])c1ccccc1[N+](=O)[O-])[*:2]; Biotin = O=C1N[C@H]2[C@H](CS[C@H]2CCCCC(=O)*)N1

Columns and labels:
[1] = tested on: peripheral T-cell lymphomas (PTCLs); conditions: PTCL cells; cited from earlier work
Syk-EGFP = Syk-EGFP (Mus musculus, UniProt P48025); experiment: Terbium time-resolved luminescence dose-response inhibition assay with SAStide; format: biochemical; conditions: SAStide 37.5 μM, 30 min, Tb3+ luminescence, read-out: observed IC50
[2] = Tb3+ binding affinity and stoichiometry by sensitized luminescence
Abl [3] = biological target: T1, Abl (Homo sapiens, UniProt P00519); experiment: In vitro kinase assay, ELISA-based detection of peptide phosphorylation; format: biochemical; conditions: ELISA read-out
Procedure: (§1) In vitro kinase assay. Recombinant Abl, Src and Lyn enzymes were obtained from a commercial source (Millipore). EGFP-conjugated Syk was isolated from DT40 chicken B cells stably expressing Syk-EGFP. GFP-conjugated Lck was isolated from Jurkat cells stably expressing Lck-EGFP. Cells were lysed using a solution containing 1% Nonidet P-40, 50 mM Tris-HCl pH 8.0, 100 mM NaCl, 5 mM EDTA, 1 mM sodium orthovanadate, 2 mM NaF and 1× mammalian protease inhibitor cocktail (Sigma). Syk- and Lck-EGFP were immunoprecipitated using GFP-Trap_A beads (Chromotek) or anti-GFP magnetic nanoparticle beads (MBL, Japan). Lysates were incubated with the beads for 1 h at 4° C. The kinase-bound beads were washed and then used in the in vitro kinase assay. Syk-EGFP, Lck-EGFP, or purified Abl or Src kinase (0.1 U) were incubated with kinase reaction buffer (500 μM ATP, 5 mM MnCl2, HEPES, pH 7.2) containing the peptide substrate at 25 μM. Aliquots (22 μL) were taken at designated time points and quenched in 0.5 M EDTA, pH 8.5 (22 μL). The quenched sample (1 μL) was diluted into ELISA-based detection wash buffer and analyzed as described below. For substrate comparison assays, kinase reaction conditions were as described above except that substrate concentrations were 4 μM, and concentration of enzyme used per reaction was 6 nM. The volume of aliquots diluted in an equal volume of quench buffer was 4 μl (for 8 μl total quenched volume), and the entire quenched amount was diluted into ELISA wash buffer and analyzed as described below.
(§2) ELISA-based fluorescence detection. Samples were incubated in a 96-well Neutravidin™ coated plate (Thermo Scientific) in Tris-buffered saline (TBS) containing 0.1% BSA and 0.05% Tween 20 for 1 h at room temperature on a short-radius plate shaker (600 rpm). Following incubation, wells were washed three times with wash buffer (TBS, 0.1% BSA, 0.05% Tween 20), then incubated with mouse anti-phosphotyrosine monoclonal antibody 4G10 (1:5000 dilution in wash buffer, 100 μL per well) for 1 h at room temperature with shaking. Wells were washed three times with wash buffer and incubated with horseradish peroxidase-conjugated goat anti-mouse immunoglobulin G (IgG) secondary antibody (Abcam) (1:1000 dilution in the wash buffer, 100 μL per well) for 1 h at room temperature with shaking. Wells were then washed three times with wash buffer and twice with sodium phosphate buffer (0.05 M, pH 7.5). For chemifluorescence detection, Amplex Red™ reaction buffer (100 μL total volume/well) consisting of Amplex Red™ reagent (50 μL) (Invitrogen), 20 mM H2O2 (500 μL) and sodium phosphate buffer (4500 μL) and allowed to react for 30 min. Fluorescence of Amplex Red™ was measure using a Synergy4 multiwell plate reader (Biotek) with an excitation wavelength of 532 nm and emission wavelength of 590 nm.

Lyn = Lyn (Homo sapiens, UniProt P07948); experiment: as above; format: biochemical; conditions: ELISA read-out
Procedure: as §1, §2

Src = Src (Homo sapiens, UniProt P12931); experiment: as above; format: biochemical; conditions: ELISA read-out
Procedure: as §1, §2

Syk = biological target: T2, Syk (Mus musculus, UniProt P48025); experiment: as above; format: biochemical; conditions: ELISA read-out
T2 construct: made in house; host or cells: DT40 chicken B cells (Syk-deficient, reconstituted with Syk-EGFP)
Procedure: as §1, §2

[4] = tested on: DG75 and DT40 B cell lines; experiment: Toxicity of SAStide biosensor peptide in the cell-based assay; conditions: peptide at 25 μM
Procedure: Cell culture and biological reagents. The DG75 and DT40 B cell lines were grown to a density of 0.4×10^6 cells/mL in RPMI-1640 medium containing 7.5% FBS, 1 mM sodium pyruvate, 100 IU/mL penicillin, 100 μg/mL streptomycin and 50 μM 2-metcaptoethanol. Additionally, DT40 cell medium contained 1% chicken serum. Anti-chicken IgM and anti-mouse IgM F(ab′)2 fragments were purchased from Bethyl Laboratories. Anti-human IgM was purchased from Rockland Immunochemicals. Hydrogen peroxide was purchased from Mallinckrodt. Anti-Syk (N-19) was purchased from Santa Cruz Biotechnology. Anti-tubulin and anti-phosphotyrosine (4G10) were purchased from Millipore. Anti-phospho Syk (Y525/526) was purchased from Cell SignalingTechnology.
Cell-Based peptide SAStide biosensor assay. […] Aliquots of the cell suspension (1 mL) were harvested, lysed in PhosphoSafe Extraction Reagent (EMD Millipore) containing 167 mM EDTA and freshly prepared protease inhibitor cocktail (Roche) and flash frozen. Half the cell lysate from each sample was used for ELISA-based fluorescence detection and the other for immunoblotting. For dose-response experiments, cells were stimulated with varying concentrations of anti-IgM (2.5-10 μg/mL) or hydrogen peroxide (1-7 mM), harvested at 5 min post-stimulation and processed as described above. For immunoblotting, membranes were blocked in 5% goat serum for 1 h. […]

Bcr-Abl [5] = biological target: T3, Bcr-Abl (Homo sapiens, UniProt P00519); experiment: Cell-based Bcr-Abl biosensor assay in K562 cells, Western blot
K562 cells = experiment: Intracellular degradation of biosensor peptide in K562 cells, MALDI-TOF/TOF; conditions: 5 min exposure
Abl [6] = biological target: T1, Abl; experiment: ABStide specificity in vitro kinase assay (terbium luminescence, confirmed by ELISA); format: biochemical; conditions: terbium-sensitized luminescence
Procedure: Terbium based in vitro kinase assays. Recombinant kinases were incubated with the kinase reaction buffer (15 nM kinase, 100 μM ATP, 10 mM MgCl2, 125 ng/μL BSA and 25 mM HEPES pH 7.5, total volume 180 μL) containing 12.5 μM biosensor at 30° C. Aliquots (20 μL) were taken at designated time points (0.5, 5, 10, 15, 30, 45 and 60 min) and quenched in 6 M urea (20 μL). The quenched samples were then treated with the luminescence buffer (500 μM Tb^3+ and 500 mM NaCl, 10 μL) for a total volume of 50 μL (final concentrations of sample components: 2.4 M urea, 40 μM ATP, 4 mM MgCl2, 50 ng/μL BSA and 10 mM HEPES pH 7.5). Luminescence emission spectra were collected as described above and the area under each spectrum was integrated using GraphPad Prism. An additional aliquot (2 μL) of the kinase reaction mixture was taken at each time point for validation of phosphorylation using an ELISA-based chemifluorescent assay as previously described. Briefly, each aliquot was quenched with 0.5 M EDTA and incubated in a 96-well Neutravidin coated plate (15 pmol biotin binding capacity per well, Thermo Scientific) in Tris-buffer saline (TBS) containing 0.1% BSA and 0.05% Tween 20 for 1 h. […] Fluorescence was measured using a Synergy4 multiwell plate reader (Biotek) with an excitation wavelength of 532 nm and emission wavelength of 590 nm.

Bcr-Abl [7] = biological target: T3, Bcr-Abl; experiment: Cell-based Bcr-Abl biosensor assay in K562 cells, MRM mass spectrometry; design: endogenous in cells; host or cells: K562 cells; the other entry of the earlier key: BCR (P11274, Breakpoint cluster region protein); conditions: 5 min, 1 μg lysate
[8] = 1 μM peptide, Tb3+ 0-50 μM, read-out: Kd of peptide:terbium complex

T3 sequence (P00519 with tags, fused parts or gaps): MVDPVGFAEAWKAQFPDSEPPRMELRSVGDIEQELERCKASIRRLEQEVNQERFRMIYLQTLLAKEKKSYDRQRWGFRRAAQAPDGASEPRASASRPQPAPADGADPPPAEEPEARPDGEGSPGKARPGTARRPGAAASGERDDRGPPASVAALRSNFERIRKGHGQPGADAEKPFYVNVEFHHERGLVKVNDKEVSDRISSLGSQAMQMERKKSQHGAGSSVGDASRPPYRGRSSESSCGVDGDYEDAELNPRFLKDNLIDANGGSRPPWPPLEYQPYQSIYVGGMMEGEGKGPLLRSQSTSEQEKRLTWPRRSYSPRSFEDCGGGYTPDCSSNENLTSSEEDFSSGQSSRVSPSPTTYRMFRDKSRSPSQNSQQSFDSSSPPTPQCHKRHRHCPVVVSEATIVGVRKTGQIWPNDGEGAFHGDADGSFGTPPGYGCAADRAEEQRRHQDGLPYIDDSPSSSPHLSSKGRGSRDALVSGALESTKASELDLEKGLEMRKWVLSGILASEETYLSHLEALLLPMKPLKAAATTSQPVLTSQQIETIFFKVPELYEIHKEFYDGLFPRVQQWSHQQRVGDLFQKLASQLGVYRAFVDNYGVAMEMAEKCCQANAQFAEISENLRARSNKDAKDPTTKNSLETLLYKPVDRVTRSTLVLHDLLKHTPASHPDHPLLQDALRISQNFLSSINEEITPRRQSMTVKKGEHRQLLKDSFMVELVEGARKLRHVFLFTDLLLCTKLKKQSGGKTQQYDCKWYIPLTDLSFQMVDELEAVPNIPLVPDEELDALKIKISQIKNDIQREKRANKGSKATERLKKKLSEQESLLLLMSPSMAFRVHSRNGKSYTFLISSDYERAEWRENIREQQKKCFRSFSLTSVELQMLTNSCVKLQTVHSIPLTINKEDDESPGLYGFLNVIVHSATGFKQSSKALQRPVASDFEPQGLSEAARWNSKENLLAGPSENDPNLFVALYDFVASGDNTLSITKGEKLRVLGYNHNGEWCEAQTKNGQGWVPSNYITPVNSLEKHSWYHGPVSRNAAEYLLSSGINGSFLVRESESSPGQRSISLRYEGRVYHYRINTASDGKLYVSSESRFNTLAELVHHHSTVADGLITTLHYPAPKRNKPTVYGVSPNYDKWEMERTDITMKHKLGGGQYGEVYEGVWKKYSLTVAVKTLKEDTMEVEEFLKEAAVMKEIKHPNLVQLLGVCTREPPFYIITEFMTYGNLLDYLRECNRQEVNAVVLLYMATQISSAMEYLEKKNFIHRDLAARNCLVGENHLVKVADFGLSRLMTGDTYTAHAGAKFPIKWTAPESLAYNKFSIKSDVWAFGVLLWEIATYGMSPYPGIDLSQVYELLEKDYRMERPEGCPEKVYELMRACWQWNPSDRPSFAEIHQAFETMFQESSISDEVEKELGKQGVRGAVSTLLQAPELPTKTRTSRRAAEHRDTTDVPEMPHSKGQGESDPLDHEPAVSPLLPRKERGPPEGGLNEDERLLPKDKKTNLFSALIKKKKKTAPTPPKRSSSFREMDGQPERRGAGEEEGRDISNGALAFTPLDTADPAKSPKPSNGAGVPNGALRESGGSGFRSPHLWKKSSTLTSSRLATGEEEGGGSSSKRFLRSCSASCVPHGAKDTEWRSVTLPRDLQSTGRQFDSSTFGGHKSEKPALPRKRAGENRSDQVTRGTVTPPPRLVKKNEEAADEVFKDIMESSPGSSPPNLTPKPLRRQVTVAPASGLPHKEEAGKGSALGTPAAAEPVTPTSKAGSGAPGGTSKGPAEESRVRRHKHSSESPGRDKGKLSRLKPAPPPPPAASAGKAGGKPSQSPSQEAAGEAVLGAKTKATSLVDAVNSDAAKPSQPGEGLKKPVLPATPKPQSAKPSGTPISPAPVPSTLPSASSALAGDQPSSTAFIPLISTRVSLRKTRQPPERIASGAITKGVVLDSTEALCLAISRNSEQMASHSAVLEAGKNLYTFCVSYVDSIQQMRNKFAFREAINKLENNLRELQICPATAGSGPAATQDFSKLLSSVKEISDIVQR
T1 sequence (P00519 whole entry, species assumed): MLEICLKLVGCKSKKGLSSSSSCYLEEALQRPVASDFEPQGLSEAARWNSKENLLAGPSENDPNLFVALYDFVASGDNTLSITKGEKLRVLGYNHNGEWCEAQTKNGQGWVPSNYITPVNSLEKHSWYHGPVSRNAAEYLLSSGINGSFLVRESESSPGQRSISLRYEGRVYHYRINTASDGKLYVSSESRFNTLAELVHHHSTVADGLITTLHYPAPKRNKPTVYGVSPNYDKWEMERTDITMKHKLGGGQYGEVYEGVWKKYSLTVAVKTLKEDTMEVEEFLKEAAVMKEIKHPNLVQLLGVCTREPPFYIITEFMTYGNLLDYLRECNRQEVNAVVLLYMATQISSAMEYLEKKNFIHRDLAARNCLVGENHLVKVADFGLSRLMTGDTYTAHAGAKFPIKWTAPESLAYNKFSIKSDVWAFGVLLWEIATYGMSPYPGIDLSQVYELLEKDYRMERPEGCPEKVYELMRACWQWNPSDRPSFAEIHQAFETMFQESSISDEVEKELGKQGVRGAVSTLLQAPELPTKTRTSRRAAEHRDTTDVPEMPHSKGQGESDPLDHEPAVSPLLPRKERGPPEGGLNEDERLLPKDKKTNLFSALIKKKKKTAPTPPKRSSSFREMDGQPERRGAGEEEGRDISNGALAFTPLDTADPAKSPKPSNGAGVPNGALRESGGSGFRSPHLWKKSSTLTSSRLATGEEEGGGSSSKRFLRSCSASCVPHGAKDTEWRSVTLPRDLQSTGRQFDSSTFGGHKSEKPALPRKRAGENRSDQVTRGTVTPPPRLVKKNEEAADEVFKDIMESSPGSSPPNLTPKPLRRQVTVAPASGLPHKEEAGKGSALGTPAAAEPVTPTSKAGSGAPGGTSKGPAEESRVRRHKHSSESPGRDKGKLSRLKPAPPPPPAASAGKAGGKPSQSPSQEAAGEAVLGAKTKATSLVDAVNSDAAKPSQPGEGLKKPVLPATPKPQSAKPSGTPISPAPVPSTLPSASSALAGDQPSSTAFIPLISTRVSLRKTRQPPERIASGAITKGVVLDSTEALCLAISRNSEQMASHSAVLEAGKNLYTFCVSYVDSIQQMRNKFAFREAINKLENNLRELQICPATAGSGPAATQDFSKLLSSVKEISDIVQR
T2 sequence (P48025 whole entry): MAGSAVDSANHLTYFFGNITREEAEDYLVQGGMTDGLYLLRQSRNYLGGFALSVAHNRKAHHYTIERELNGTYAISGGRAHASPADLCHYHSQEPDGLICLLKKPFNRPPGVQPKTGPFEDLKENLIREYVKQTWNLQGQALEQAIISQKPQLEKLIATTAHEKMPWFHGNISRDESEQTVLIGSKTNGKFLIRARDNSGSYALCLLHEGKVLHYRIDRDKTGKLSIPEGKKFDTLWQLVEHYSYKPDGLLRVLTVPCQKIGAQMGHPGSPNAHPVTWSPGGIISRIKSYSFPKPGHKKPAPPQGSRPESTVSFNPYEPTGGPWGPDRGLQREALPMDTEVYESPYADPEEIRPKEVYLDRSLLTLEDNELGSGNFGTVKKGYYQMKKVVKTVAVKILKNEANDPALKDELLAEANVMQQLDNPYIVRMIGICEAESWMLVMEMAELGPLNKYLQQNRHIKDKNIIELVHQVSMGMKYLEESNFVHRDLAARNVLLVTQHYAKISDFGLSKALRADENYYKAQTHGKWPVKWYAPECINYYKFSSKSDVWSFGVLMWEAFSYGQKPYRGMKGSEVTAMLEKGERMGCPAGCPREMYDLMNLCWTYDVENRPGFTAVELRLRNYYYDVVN
Chain of Lyn (P07948 whole entry, species assumed): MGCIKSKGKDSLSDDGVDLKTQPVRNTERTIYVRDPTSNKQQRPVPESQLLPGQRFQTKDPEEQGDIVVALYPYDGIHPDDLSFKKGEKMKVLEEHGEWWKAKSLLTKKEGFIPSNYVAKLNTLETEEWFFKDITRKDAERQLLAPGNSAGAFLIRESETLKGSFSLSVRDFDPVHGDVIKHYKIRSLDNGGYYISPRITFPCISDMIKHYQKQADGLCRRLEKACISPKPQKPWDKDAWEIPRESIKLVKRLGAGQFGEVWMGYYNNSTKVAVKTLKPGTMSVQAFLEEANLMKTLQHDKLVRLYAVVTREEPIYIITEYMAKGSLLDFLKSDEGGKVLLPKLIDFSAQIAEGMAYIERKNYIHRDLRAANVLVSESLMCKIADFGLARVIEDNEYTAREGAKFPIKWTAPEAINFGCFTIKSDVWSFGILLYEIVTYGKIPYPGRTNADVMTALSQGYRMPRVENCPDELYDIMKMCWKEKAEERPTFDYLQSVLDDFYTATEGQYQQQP
Chain of Syk-EGFP (P48025 whole entry): as the sequence (P48025 whole entry) above

For `COc1cc(Nc2ncc(F)c(Nc3ccc4c(n3)NC(=O)C(C)(C)O4)n2)cc(OC)c1OC` [R406], the “effect on cells with elevated Syk Y525/Y526 phosphorylation” value [1] is given as “induces apoptosis and blocks proliferation”.

With `Oc1cc(O)cc(/C=C/c2ccc(O)c(O)c2)c1` [piceatannol] the IC50 (Syk-EGFP) was 178 ± 1.4 µM.

For DEEDYEEPDEP [SAStide], the Kd ([2]; read-out: Kd of 1:1 peptide-terbium complex) was 7.64 ± 0.32 µM, the “phosphorylation of peptide by Abl” value (Abl [3]) was “none of which produced any significant signal” and the “phosphorylation of peptide by Lyn” value (Lyn) was “none of which produced any significant signal”. The “phosphorylation of peptide by Src” value (Src) was “none of which produced any significant signal”, the “phosphorylation of peptide by Syk” value (Syk) was “phosphorylated” and the “toxicity of peptide to cells” value [4] was “no toxicity was observed”.

In the case of “EAIYAAPFAKKK(Biotin)G[ξβ3hPhg(2-NO2)]GCGGAPTYSPPPPPGGRKKRRQRRRLL [Abl biosensor]”, the “uptake into K562 cells” value (Bcr-Abl [5]; 25 μM peptide) is reported as “readily taken up” and the “intact peptide after exposure to cells” value (K562 cells) is reported as “essentially no intact peptide was observed”.

For “GGDEDDNDEVAYQAPFEDGGKbiotinGG (GGDEDDNDEVAYQAPFEDGGK(Biotin)GG) [ABStide, Abl artificial substrate peptide]”, the “substrate specificity Abl against Hck” value (Abl [6]) was “specific for Abl”.

“GGDNEGDVYDFVEDGGKbiotin (GGDNEGDVYDFVEDGGK(Biotin)GG) [SFAStideB, Src family artificial substrate peptide B]” gave a Kd [2, 8] of 2.5 µM.

In the case of GGEEDEDIYEELDEPGGKbiotinGG [SFAStide-A], the Kd [2, 8] is reported as 3.93 µM, the “phosphorylation of peptide by Abl” value (Abl [3]) is reported as “will not” and the “phosphorylation of peptide by Lyn” value (Lyn) is reported as “phosphorylate SFAStide-A efficiently”. The “phosphorylation of peptide by Src” value (Src) was “phosphorylate SFAStide-A efficiently” and the “phosphorylation of peptide by Syk” value (Syk) was “will not”.

With “pSFAStideA [Phosphorylated form of SFAStide-A]” the Kd [2, 8] was 0.77 µM.

With pervanadate [reference compound] the “effect on phosphorylation of Abl biosensor” value (Bcr-Abl [5]; K562 cells, 10 μM imatinib or 1 μM pervanadate, 5, 30, 60 min) was “stabilized” and the “phosphorylated biosensor peptide detected” value (Bcr-Abl [7]) was “higher levels”.
